The structures appear in SMILES notation.

T1 sequence (P34972 whole entry): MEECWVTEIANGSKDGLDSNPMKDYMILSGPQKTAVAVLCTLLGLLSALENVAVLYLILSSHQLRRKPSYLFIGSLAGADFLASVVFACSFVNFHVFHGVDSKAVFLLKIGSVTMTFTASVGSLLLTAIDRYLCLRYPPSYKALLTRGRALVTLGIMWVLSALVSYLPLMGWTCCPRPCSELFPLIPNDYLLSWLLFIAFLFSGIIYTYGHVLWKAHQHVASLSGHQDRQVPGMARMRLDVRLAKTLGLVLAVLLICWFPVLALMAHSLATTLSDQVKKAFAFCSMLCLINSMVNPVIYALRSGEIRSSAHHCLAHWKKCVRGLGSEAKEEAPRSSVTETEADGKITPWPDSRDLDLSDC

The first test has as its target T1, human CB2 receptors (Homo sapiens, UniProt P34972).
T1 construct: expressed in transfected cells; host or cells: CHO cells
The test is described as follows: cAMP assay. The format is cell-based.
Conditions: not given
Here is the method:
CHO cells expressing human CB1 or CB2 receptors are seeded 17-24 hours prior to the experiment 50.000 cells per well in a black 96 well plate with flat clear bottom (Corning Costar #3904) in DMEM (Invitrogen No. 31331), 1×HT supplement, with 10% fetal calf serum and incubated at 5% CO2 and 37° C. in a humidified incubator. The growth medium was exchanged with Krebs Ringer Bicarbonate buffer with 1 mM IBMX and incubated at 30° C. for 30 min. Compounds were added to a final assay volume of 100 μl and incubated for 30 min at 30° C. Using the cAMP-Nano-TRF detection kit the assay (Roche Diagnostics) was stopped by the addition of 50 μl lysis reagent (Tris, NaCl, 1.5% Triton X100, 2.5% NP40, 10% NaN3) and 50 μl detection solutions ([…] mAb Alexa700-cAMP 1:[…] Ruthenium-2-AHA-cAMP) and shaken for 2 h at room temperature. The time-resolved energy transfer is measured by a TRF reader (Evotec Technologies GmbH), equipped with a ND:YAG laser as excitation source. The plate is measured twice with the excitation at 355 nm and at the emission with a delay of 100 ns and a gate of 100 ns, total exposure time 10 s at 730 (bandwidth 30 nm) or 645 nm (bandwidth 75 nm), respectively. The FRET signal is calculated as follows: FRET=T730-Alexa730-P(T645-B645) with P=Ru730-B730/Ru645-B645, where T730 is the test well measured at 730 nM, T645 is the test well measured at 645 nm, B730 and B645 are the buffer controls at 730 nm and 645 nm, respectively. cAMP content is determined from the function of a standard curve spanning from […] to 0.13 nM cAMP.
EC50 values were determined using Activity Base analysis (ID Business Solution, Limited).
`CC1(F)CN(c2ccc(C(=O)N3CC(F)(F)C[C@H]3C(N)=O)nc2OCC2CC2)C1` [Example 34, (2S)-1-[6-(Cyclopropylmethoxy)-5-(3-fluoro-3-methylazetidin-1-yl)pyridine-2-carbonyl]-4,4-difluoropyrrolidine-2-carboxamide] yielded an EC50 of 0.0114 µM.

With `CC(C)(NC(=O)c1ccc(-c2ccc(Cl)cc2)c(OCC2CC2)n1)c1ncco1` [Example 3, 5-(4-Chlorophenyl)-6-(cyclopropylmethoxy)-N-[2-(1,3-oxazol-2-yl)propan-2-yl]pyridine-2-carboxamide], the half-maximal effective concentration (EC50) stood at 0.144 µM.

On to `NC(=O)CC1(NC(=O)c2ccc(N3CC(F)(C4CC4)C3)c(OCC3CC3)n2)COC1` [Example 38, N-[3-(2-Amino-2-oxoethyl)oxetan-3-yl]-5-(3-cyclopropyl-3-fluoroazetidin-1-yl)-6-(cyclopropylmethoxy)pyridine-2-carboxamide], for which the EC50 is 0.0483 µM.

`Cc1nc(C(C)(C)NC(=O)c2ccc(-c3ccc(Cl)cc3)c(OCC3CC3)n2)no1` [Example 4, 5-(4-Chlorophenyl)-6-(cyclopropylmethoxy)-N-[2-(5-methyl-1,2,4-oxadiazol-3-yl)propan-2-yl]pyridine-2-carboxamide] came in with an EC50 of 0.232 µM.

`CCC(CC)(NC(=O)c1ccc(OCC2CC2)c(Cl)n1)C(=O)NC` [Example 17, 6-Chloro-5-(cyclopropylmethoxy)-N-[3-(methylcarbamoyl)pentan-3-yl]pyridine-2-carboxamide]: a half-maximal effect (EC50) was put at 0.8 µM.

As for `NC(=O)[C@@H]1CC(F)(F)CN1C(=O)c1ccc(N2CC(F)(C3CC3)C2)c(OCC2CC2)n1` [Example 37, (2S)-1-[5-(3-Cyclopropyl-3-fluoroazetidin-1-yl)-6-(cyclopropylmethoxy)pyridine-2-carbonyl]-4,4-difluoropyrrolidine-2-carboxamide], the midpoint of the response, the EC50, lay at 0.0193 µM.

`CCC(CC)(NC(=O)c1ccc(N2CC(OC)C2)c(OCC2CC2)n1)C(=O)N1CC(F)C1` [Example 26, 6-(Cyclopropylmethoxy)-N-[3-(3-fluoroazetidine-1-carbonyl)pentan-3-yl]-5-(3-methoxyazetidin-1-yl)pyridine-2-carboxamide] displayed an EC50 of 0.00458 µM.

Compound `Cc1nc(C(C)(C)NC(=O)c2ccc(OCC3CC3)c(-c3cccc(Cl)c3)n2)no1` [Example 9, 6-(3-Chlorophenyl)-5-(cyclopropylmethoxy)-N-[2-(5-methyl-1,2,4-oxadiazol-3-yl)propan-2-yl]pyridine-2-carboxamide] yielded an EC50 of 0.0424 µM.

As to `NC(=O)[C@H](CC1CC1)NC(=O)c1ccc(OCC2CC2)c(OCC2CC2)n1` [Example 14, N-[(2S)-1-Amino-3-cyclopropyl-1-oxopropan-2-yl]-5,6-bis(cyclopropylmethoxy)pyridine-2-carboxamide], the EC50 was found to be 0.095 µM.

The compound `NC(=O)[C@@H]1CC(F)(F)CN1C(=O)c1ccc(N2CCC(O)(C(F)(F)F)C2)c(OCC2CC2)n1` (stereo partly drawn) [Example 28, (2S)-1-[6-(Cyclopropylmethoxy)-5-[3-hydroxy-3-(trifluoromethyl)pyrrolidin-1-yl]pyridine-2-carbonyl]-4,4-difluoropyrrolidine-2-carboxamide] returned an EC50 of 1.68 µM.

The same test, now with this note: CHO cells expressing human CB2 receptors; read-out: cAMP assay human CB2 EC50.
With `COC1CN(c2ccc(C(=O)NC(C)(C)Cc3nnc(-c4ccc(F)cc4)o3)nc2OCC2CC2)C1` [Example 21, 6-(Cyclopropylmethoxy)-N-[1-[5-(4-fluorophenyl)-1,3,4-oxadiazol-2-yl]-2-methylpropan-2-yl]-5-(3-methoxyazetidin-1-yl)pyridine-2-carboxamide], the EC50 is 0.853 µM.

Consider `COC1CN(c2ccc(C(=O)NC3(CC(N)=O)COC3)nc2OCC2CC2)C1` [Example 22, N-[3-(2-Amino-2-oxoethyl)oxetan-3-yl]-6-(cyclopropylmethoxy)-5-(3-methoxyazetidin-1-yl)pyridine-2-carboxamide], for which the EC50 turned out to be 0.067 µM.

On to `CCC(CC)(NC(=O)c1ccc(N2CC(OC)C2)c(OCC2CC2)n1)C(=O)NCCCF` [Example 27, 6-(Cyclopropylmethoxy)-N-[3-(3-fluoropropylcarbamoyl)pentan-3-yl]-5-(3-methoxyazetidin-1-yl)pyridine-2-carboxamide], for which the EC50 was 0.444 µM.

The record behind these values is patent publication US20160376237A1, “NOVEL PYRIDINE DERIVATIVES” (Hoffmann-La Roche Inc., priority 2014, published 2016).
